Laboratory results: PubChem BioAssay AID298 (DTP/NCI, 2004)
Several values for one entry are separate records, joined by “and”; a condition that tells them apart may be missing. Equal values may be shown once. Inconclusive results are not listed.

Test system: MX-1 breast xenograft, intrarenal, nude mice, tumor weight
Assay: NCI In Vivo Anticancer Drug Screen. Data for tumor model Human Mammary Carcinoma MX-1 Xenograft (intrarenal inoculation) in NU/NU BALB/C (nude) mice
Settings: endpoint: mean tumor weight change, higher = larger tumour
In short: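 Compounds were given to mice carrying transplanted tumors, and tumor size or survival was measured. Each value is the treated-group measurement (T) divided by the vehicle-treated control-group measurement (C).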

[1] = dose: 50.0 mg/kg/injection, schedule: Q04DX003 (ip), vehicle: saline with Tween-80
[2] = dose: 600.0 mg/kg/injection, schedule: Q04DX003 (sc), vehicle: Klucel (hydroxypropylcellulose) (HPC)
[3] = dose: 1200.0 mg/kg/injection, schedule: Q04DX003 (sc), vehicle: Klucel (hydroxypropylcellulose) (HPC)
[4] = dose: 2400.0 mg/kg/injection, schedule: Q04DX003 (sc), vehicle: Klucel (hydroxypropylcellulose) (HPC)

Q: Which results are given for `CC[C@@]1(O)C(=O)OCc2c1cc1n(c2=O)Cc2cc3c(N)cccc3nc2-1`?
A: T/C (dose: 0.72 mg/kg/injection, schedule: Q04DX003 (ip), vehicle: saline with Tween-80): 6 % of control; T/C (dose: 1.0 mg/kg/injection, schedule: Q04DX003 (ip), vehicle: saline with Tween-80): -97 % of control; T/C (dose: 1.2 mg/kg/injection, schedule: Q04DX003 (ip), vehicle: saline with Tween-80): -30 % of control; T/C (dose: 2.0 mg/kg/injection, schedule: Q04DX003 (ip), vehicle: saline with Tween-80): -92 % of control and -100 % of control; T/C (dose: 3.33 mg/kg/injection, schedule: Q04DX003 (ip), vehicle: saline with Tween-80): -100 % of control

Q: For `Nc1ncn(C2OC(CO)C(O)C2O)c(=O)n1` (stereo unspecified), which T/C (dose: 0.19 mg/kg/injection, schedule: Q01DX010 (ip), vehicle: saline) is on record?
A: Its T/C is 307 % of control.

Q: What about the T/C (dose: 0.19 mg/kg/injection, schedule: Q01DX010 (sc), vehicle: saline) of the same molecule?
A: The T/C was 83 % of control.

Q: And the T/C (dose: 0.38 mg/kg/injection, schedule: Q01DX010 (ip), vehicle: saline)?
A: Its T/C is 261 % of control.

Q: What about the T/C (dose: 0.63 mg/kg/injection, schedule: Q04DX003 (ip), vehicle: saline) of the same molecule?
A: Its T/C is 73 % of control.

Q: What about the T/C (dose: 0.63 mg/kg/injection, schedule: Q04DX003 (sc), vehicle: saline) of the same molecule?
A: The T/C was 22 % of control.

Q: What about the T/C (dose: 0.75 mg/kg/injection, schedule: Q01DX010 (ip), vehicle: saline) of the same molecule?
A: Its T/C is 86 % of control.

Q: What about the T/C (dose: 0.75 mg/kg/injection, schedule: Q01DX010 (sc), vehicle: saline) of the same molecule?
A: Its T/C is 69 % of control.

Q: What about the T/C (dose: 1.25 mg/kg/injection, schedule: Q04DX003 (ip), vehicle: saline) of the same molecule?
A: The T/C was 91 % of control.

Q: What about the T/C (dose: 1.25 mg/kg/injection, schedule: Q04DX003 (sc), vehicle: saline) of the same molecule?
A: The T/C was 40 % of control.

Q: And the T/C (dose: 1.5 mg/kg/injection, schedule: Q01DX010 (ip), vehicle: saline)?
A: Its T/C is 249 % of control.

Q: And the T/C (dose: 2.5 mg/kg/injection, schedule: Q04DX003 (ip), vehicle: saline)?
A: The T/C was 94 % of control.

Q: And the T/C (dose: 2.5 mg/kg/injection, schedule: Q04DX003 (sc), vehicle: saline)?
A: Its T/C is 36 % of control.

Q: What about the T/C (dose: 5.0 mg/kg/injection, schedule: Q04DX003 (ip), vehicle: saline) of the same molecule?
A: Its T/C is 31 % of control.

Q: What about the T/C (dose: 10.0 mg/kg/injection, schedule: Q04DX003 (sc), vehicle: saline) of the same molecule?
A: Its T/C is 23 % of control.

Q: What about the T/C (dose: 100.0 mg/kg/injection, schedule: Q04DX003 (sc), vehicle: saline) of the same molecule?
A: Its T/C is 15 % of control.

Q: And the T/C (dose: 150.0 mg/kg/injection, schedule: Q04DX003 (sc), vehicle: saline)?
A: The T/C was 21 % of control.

Q: What about the T/C (dose: 200.0 mg/kg/injection, schedule: Q04DX003 (sc), vehicle: saline) of the same molecule?
A: The T/C was 15 % of control.

Q: And the T/C (dose: 300.0 mg/kg/injection, schedule: Q04DX003 (sc), vehicle: saline)?
A: The T/C was 8 % of control.

Q: And the T/C (dose: 400.0 mg/kg/injection, schedule: Q04DX003 (sc), vehicle: saline)?
A: Its T/C is 4 % of control.

Q: What about the T/C (dose: 600.0 mg/kg/injection, schedule: Q04DX003 (sc), vehicle: saline) of the same molecule?
A: Its T/C is -45 % of control.

Q: And the T/C (dose: 800.0 mg/kg/injection, schedule: Q04DX003 (sc), vehicle: saline)?
A: Its T/C is -50 % of control.

Q: And the T/C (dose: 1200.0 mg/kg/injection, schedule: Q04DX003 (sc), vehicle: saline)?
A: Its T/C is -43 % of control.

Q: Which T/C (dose: 89.0 mg/kg/injection, schedule: Q04DX003 (oral), vehicle: Klucel (hydroxypropylcellulose) (HPC)) does the source give for `COc1nc(C(Cl)(Cl)Cl)c(Cl)c(OC)c1Cl` here?
A: The T/C was -100 % of control.

Q: What about the T/C (dose: 133.5 mg/kg/injection, schedule: Q04DX003 (oral), vehicle: Klucel (hydroxypropylcellulose) (HPC)) of the same molecule?
A: The T/C was -100 % of control.

Q: And the T/C (dose: 200.0 mg/kg/injection, schedule: Q04DX003 (oral), vehicle: Klucel (hydroxypropylcellulose) (HPC))?
A: Its T/C is -100 % of control.

Q: And the T/C (dose: 300.0 mg/kg/injection, schedule: Q04DX003 (oral), vehicle: Klucel (hydroxypropylcellulose) (HPC))?
A: Its T/C is -100 % of control.

Q: And the T/C (dose: 450.0 mg/kg/injection, schedule: Q04DX003 (oral), vehicle: Klucel (hydroxypropylcellulose) (HPC))?
A: Its T/C is -100 % of control.

Q: `C/C(=N\NC(=S)N1CC2CCC(CC2)C1)c1cccc(C)n1` was tested. Which T/C (dose: 12.5 mg/kg/injection, schedule: Q04DX003 (ip), vehicle: saline with Tween-80) did it give?
A: Its T/C is 77 % of control.

Q: What about the T/C (dose: 25.0 mg/kg/injection, schedule: Q04DX003 (ip), vehicle: saline with Tween-80) of the same molecule?
A: The T/C was 62 % of control.

Q: And the T/C [1]?
A: The T/C was 78 % of control.

Q: What does the source list for `N=C(N)c1ccc(N=Nc2c(O)ccc3cc(O)ccc23)cc1`?
A: T/C (dose: 75.0 mg/kg/injection, schedule: Q04DX003 (ip), vehicle: Klucel (hydroxypropylcellulose) (HPC)): 98 % of control and 123 % of control; T/C (dose: 150.0 mg/kg/injection, schedule: Q04DX003 (ip), vehicle: Klucel (hydroxypropylcellulose) (HPC)): 95 % of control and 117 % of control; T/C (dose: 300.0 mg/kg/injection, schedule: Q04DX003 (ip), vehicle: Klucel (hydroxypropylcellulose) (HPC)): 70 % of control

Q: How did the T/C (dose: 0.75 mg/kg/injection, schedule: Q01DX010 (ip), vehicle: saline with Tween-80) turn out when `CC(C)CCC(=O)c1ccoc1` was run?
A: The T/C was 101 % of control.

Q: And the T/C (dose: 1.5 mg/kg/injection, schedule: Q01DX010 (ip), vehicle: saline with Tween-80)?
A: The T/C was 103 % of control.

Q: And the T/C (dose: 3.0 mg/kg/injection, schedule: Q01DX010 (ip), vehicle: saline with Tween-80)?
A: The T/C was 84 % of control.

Q: `Cc1ccc(C2=CSC3=NCCN23)cc1Cl` was tested. Which T/C (dose: 37.5 mg/kg/injection, schedule: Q04DX003 (ip), vehicle: saline) did it give?
A: The T/C was 85 % of control.

Q: Which T/C (dose: 1.0 mg/kg/injection, schedule: Q04DX003 (sc), vehicle: Klucel (hydroxypropylcellulose) (HPC)) does the source give for `O=C1C=C2C(=CCOC2O)O1` (stereo unspecified) here?
A: The T/C was 87 % of control.

Q: And the T/C (dose: 2.0 mg/kg/injection, schedule: Q04DX003 (sc), vehicle: Klucel (hydroxypropylcellulose) (HPC))?
A: The T/C was 79 % of control.

Q: And the T/C (dose: 4.0 mg/kg/injection, schedule: Q04DX003 (sc), vehicle: Klucel (hydroxypropylcellulose) (HPC))?
A: The T/C was 59 % of control.

Q: Which results are given for `CCN(CC)CC(=O)O[C@]1(CC)C(=O)OCc2c1cc1n(c2=O)Cc2cc3ccccc3nc2-1`?
A: T/C (dose: 2.0 mg/kg/injection, schedule: Q04DX003 (ip), vehicle: other): 35 % of control; T/C (dose: 2.0 mg/kg/injection, schedule: Q04DX003 (ip), vehicle: water): 29 % of control; T/C (dose: 4.0 mg/kg/injection, schedule: Q04DX003 (ip), vehicle: other): 19 % of control; T/C (dose: 4.0 mg/kg/injection, schedule: Q04DX003 (ip), vehicle: water): 13 % of control; T/C (dose: 8.0 mg/kg/injection, schedule: Q04DX003 (ip), vehicle: other): 1 % of control; T/C (dose: 16.0 mg/kg/injection, schedule: Q04DX003 (ip), vehicle: other): -56 % of control; T/C (dose: 16.0 mg/kg/injection, schedule: Q04DX003 (ip), vehicle: water): -100 % of control

Q: How did the T/C [1] turn out when `COc1ccc(O)cc1` was run?
A: Its T/C is 76 % of control.

Q: And the T/C (dose: 100.0 mg/kg/injection, schedule: Q04DX003 (ip), vehicle: saline with Tween-80)?
A: The T/C was 87 % of control.

Q: And the T/C (dose: 200.0 mg/kg/injection, schedule: Q04DX003 (ip), vehicle: saline with Tween-80)?
A: The T/C was 79 % of control.

Q: And the T/C (dose: 400.0 mg/kg/injection, schedule: Q04DX003 (ip), vehicle: saline with Tween-80)?
A: The T/C was 53 % of control.

Q: For `O=NNc1ccc(Cl)cn1`, which T/C (dose: 4.7 mg/kg/injection, schedule: Q04DX003 (ip), vehicle: water) is on record?
A: Its T/C is 60 % of control.

Q: What about the T/C (dose: 9.4 mg/kg/injection, schedule: Q04DX003 (ip), vehicle: water) of the same molecule?
A: Its T/C is 59 % of control.

Q: And the T/C (dose: 18.7 mg/kg/injection, schedule: Q04DX003 (ip), vehicle: water)?
A: The T/C was 29 % of control.

Q: What about the T/C (dose: 37.5 mg/kg/injection, schedule: Q04DX003 (ip), vehicle: water) of the same molecule?
A: Its T/C is 4 % of control.

Q: With `Cc1nn(CCO)c(C)c1N=[N+]([O-])c1c(C)nn(CCO)c1C` as the molecule, how does the T/C (dose: 300.0 mg/kg/injection, schedule: Q04DX003 (sc), vehicle: Klucel (hydroxypropylcellulose) (HPC)) read?
A: Its T/C is 109 % of control.

Q: What about the T/C [2] of the same molecule?
A: The T/C was 85 % of control.

Q: And the T/C [3]?
A: The T/C was 102 % of control.

Q: What about the T/C [4] of the same molecule?
A: The T/C was 90 % of control.

Q: Which T/C (dose: 150.0 mg/kg/injection, schedule: Q04DX003 (ip), vehicle: saline with Tween-80) does the source give for `C=CCNC(=O)c1ccccc1SC(C)=O` here?
A: Its T/C is 93 % of control.

Q: What about the T/C (dose: 300.0 mg/kg/injection, schedule: Q04DX003 (ip), vehicle: saline with Tween-80) of the same molecule?
A: The T/C was 99 % of control.

Q: How did the T/C (dose: 300.0 mg/kg/injection, schedule: Q04DX003 (sc), vehicle: saline with Tween-80) turn out when `CN(C)C1C(=O)C(C(=O)NP(=O)(NCCCO)N(CCCl)CCCl)=C(O)C2(O)C(=O)C3=C(O)c4c(O)cccc4C(C)(O)C3CC12` (stereo unspecified) was run?
A: The T/C was -100 % of control and -98 % of control.

Q: What about the T/C (dose: 600.0 mg/kg/injection, schedule: Q04DX003 (sc), vehicle: saline with Tween-80) of the same molecule?
A: Its T/C is -100 % of control.

Q: How did the T/C [2] turn out when `O=C1N[C@H]2[C@H](CS[C@H]2CCCCC(=O)N(CCP(c2ccccc2)c2ccccc2)CCP(c2ccccc2)c2ccccc2)N1` was run?
A: The T/C was 108 % of control.

Q: What about the T/C [3] of the same molecule?
A: The T/C was 97 % of control.

Q: What about the T/C [4] of the same molecule?
A: The T/C was 115 % of control.
